Measured values from PMC1716192, “A Plant-Derived Morphinan as a Novel Lead Compound Active against Malaria Liver Stages” (PLoS Medicine, 2006).

Legend:
[1] = system: P. yoelii liver stage parasites (18S rRNA); assay: Real-time PCR quantification of P. yoelii parasites in mouse livers; type: in vivo, Swiss mice; conditions: 42 h PI
Method: Female 6-wk-old Swiss mice weighing 24–31 g were randomly allotted to three groups. The drug to be tested was administrated orally on days −1, 0, and +1. Group 1 received 100 mg/kg/d of NCP-tazopsine (n = 4), group 2 received 200 mg/kg/d of NCP-tazopsine (n = 6), whereas the control group received Tween 80 at 10% in sterile water (n = 5). Mice were challenged on day 0 by retro-orbital injection with 120,000 P. yoelii sporozoites and sacrificed 42-h postinoculation. A piece of liver (0.2 g) was harvested and total RNA extracted using the Micro to Midi kit (Invitrogen) according to the manufacturer's instructions. The detection and quantification of liver stage parasites were done as described with minor modifications. Five micrograms of total RNA were treated with DNase from the Turbo DNA-free kit (Ambion, Huntingdon, United Kingdom) and reverse transcribed by Superscript II (Invitrogen) according to the manufacturer's instructions. A total of 6 μl of the 300 μl obtained (an equivalent to 100 ng of the starting total RNA) were used per TaqMan PCR assay (MX4000 multiplex quantitative PCR system; Stratagene, La Jolla, California, United States). […] Lack of nonspecific amplification with mouse genomic DNA was determined in preliminary experiment (unpublished data). […] Absolute transcript copy number for each gene was calculated based on their external standard curves. […]

[2] = system: P. yoelii transmissibility (oocysts, sporozoites in A. stephensi); assay: Transmissibility to A. stephensi mosquitoes fed on treated mice; type: in vivo; conditions: 200 mg/kg, A. stephensi fed on treated mice (unpublished data)
Method: In order to test for inhibitory activity against P. yoelii blood stages, four groups of five naive mice were inoculated (intraperitoneally) with 10^6 P. yoelii–infected red blood cells on day 0. Three hours later, one group was treated with tazopsine at 100 mg/kg, another with NCP-tazopsine at 200 mg/kg, whereas the other two groups acted as controls (respectively, water and 10% Tween 80). The doses were repeated daily until day +3. For the group treated with NCP- tazopsine and its control group, the animals were anesthetised 2 h following the administration of the last dose (day +3), and placed for 30 min over a cage with 100 female laboratory-bred A. stephensi. Oocysts were enumerated in 30 mosquito midguts dissected 8 d later, and the number of sporozoites in the salivary glands dissected from 30 insects was ascertained a further 7 d later. All the experiments were performed in two independent duplicates, and enumeration of parasites in blood smears and mosquitoes was conducted in a blinded fashion.

COC1=C2[C@@H]3[C@H](O)c4ccc(OC)c(O)c4[C@]2(CCN3C2CCCC2)C[C@H](O)[C@@H]1O [NCP-tazopsine, N-cyclopentyl-tazopsine]
reduction of liver parasite load versus controls ([1]; fully protective dose (200 mg/kg/d oral), 120,000 sporozoites): 99.98%
reduction of liver parasite load versus controls ([1]; suboptimal dose (100 mg/kg/d oral), 120,000 sporozoites): 98.58%
effect on the transmissibility of the parasite [2]: no effect
